Experimental data from patent publication US4472428A, “Halogenated prostacyclins pharmaceutical use thereof and hydroxy intermediates therefore” (Teijin Limited, priority 1980, dated 1984).
≈ marks a conversion by molar mass, not a printed value. Counter-ions that a name gives are not always drawn. Like-named read-outs stand apart in the source and are kept apart here.

Experiments:
platelet aggregation [1] = test: in vitro inhibitory activity of platelet aggregation (ADP-induced, rabbit PRP); assay type: cell-based, rabbit (Japanese domestic white male); details: for platelet aggregation inhibiting activity (in words): general statement; for IC50: Oryctolagus cuniculus, Platelet, rabbit PRP, 10 μM ADP, 37° C., read-out: IC50 (minimum concentration which inhibited more than 50% of platelet aggregation)
Protocol: (1) in vitro inhibitory activity of platelet aggregation:
The in vitro platelet aggregation inhibiting activities of the compounds of the invention were examined by using rabbits. Blood was withdrawn from the ear vein of Japanese domestic white male rabbits weighing 2.5 to 3.5 kg. A mixture of a 3.8% trisodium citrate solution and the blood in a ratio of 1:9 was centrifuged at a speed of 1000 rpm for 10 minutes. The upper layer was separated as platelet-rich plasma (PRP). The lower layer was further centrifuged at a speed of 2800 rpm for 10 minutes. The upper layer was separated as platelet-poor plasma (PPP). The number of platelets was adjusted to 6×10^5 /μl to 7×10^5 /μl by diluting the PRP with PPP. 25 microliters of the test compounds prepared as shown below was added in an amount of 25 to 250 microliters of PRP after the adjustment, and the mixture was pre-incubated at 37° C. for 2 minutes, and then 10 μM (final) of ADP was added. By using an aggregometer, changes in transmission were recorded.
The drug was dissolved in ethanol to a concentration of 10 mg/ml. When its activity was measured, it was used after being diluted with phosphate buffer (pH 7.4). Furthermore, after dilution with the buffer, the drug was left to stand at 0° C. for 4 hours, and the activity of the drug was similarly measured.
The rate of inhibition of platelet aggregation was determined from the following equation.
Inhibition rate (%)=(1-T/To)×100
To : the transmittance of the system containing the phosphate buffer,
T: the transmittance of the system to which the test drug was added.
The minimum concentration of the drug which inhibited more than 50% of platelet aggregation was shown as an IC50 value.

blood pressure [2] = test: hypotensive activity, intravenous injection in anesthetized rats; assay type: in vivo, rats (male wister); details: for blood pressure lowering activity (in words): general statement; for ED20: Rattus norvegicus, iv, anesthetized rats, read-out: P-ED20 (dosage causing a 20% lowering of the mean blood pressure)
Protocol: (§1) Measurement of the hypotensive activity:
(§2) The actions of the prostacyclin derivatives of the invention on the blood pressure and heart rate of rats were examined by intravenous injection under anesthesia.
(§3) Male wister rats weighing about 250 g were used. Urethane (500 mg/kg) and α-chloralose (100 mg/kg) were intraperitoneally administered to the rats. The rats were anesthetized and fixed in place.
(§4) Each of the test compounds was dissolved in a small amount of ethanol and diluted with 0.05M Tris buffer saline (pH 9) to adjust the final ethanol concentration to not more than 5%. The solution was intravenously injected into the rats through a catheter inserted into the femoral vein.
(§5) The blood pressure of the rats was measured by a pressure transducer through a catheter inserted into the carotid artery of the rats. The heart rate was determined from the blood pressure pulse.
(§6) The action of the test compound on the blood pressure was expressed as the dosage (P-ED20, μg/kg) of the test compound which caused a 20% lowering of the mean blood pressure before administration of the compound. The action of the test compound on the heart rate was expressed as the dosage (H-ED10, μg/kg) of the test compound which caused a 10% increase of the heart rate from the heart rate before administration of the test compound.

[3] = chemical stability at pH 7.4 (half period from UV absorption at 210 nm); assay type: physicochemical; details: pH 7.4 phosphate buffer, room temperature, UV 210 nm
Protocol: Test for the chemical stability of (5E)-5-chloro-PGI2 sodium salt (No. 686) and (5Z)-5-chloro-PGI2 sodium salt (No. 5Z-686):
6.54 ml of 0.02M potassium dihydrogen phosphate and 29.0 ml of 0.01M disodium hydrogen phosphate were mixed, and the pH of the mixture was measured by a pH meter.
The solution of (5E)-5-chloro-PGI2 sodium salt obtained in Example 35 and the solution of (5Z)-5-chloro-PGI2 sodium salt obtained in Example 36 were each added to the above buffer mixture, and their UV spectra were periodically recorded at room temperature. From the absorption values at 210 nm, the half periods of these salts were determined.

heart rate = test: action on heart rate, intravenous injection in anesthetized rats; assay type: in vivo, rats (male wister); details: Rattus norvegicus, i.v., read-out: H-ED10 (dosage causing a 10% increase of the heart rate)
Protocol: as §1, §2, §3, §4, §5, §6

Lewis lung carcinoma = test: activity of inhibiting metastasis of a malignant tumor; assay type: in vivo, mice
Protocol: Measurement of the activity of inhibiting metastasis of a malignant tumor:
Mice were used as experimental animals. Lewis lung carcinoma (4×10^5 cells/100 μl) was transplanted into the foot pad of each mouse. For seven days from the 5th to the 11th day after the transplantation, the compound No. 686 of the invention was intraperitoneally administered to the mouse once a day. On the 12th day, the foot at the primary nest was cut off, and the weight of the cut foot (primary nest portion) was measured. On the 20th day after the transplantation, the number of nests which metastasized to the lungs was measured.

[4] = tested on: blood pressure / platelet aggregation; test: ratio of the blood pressure lowering activity and the platelet aggregation inhibiting activity; set-up: species or system rats (blood pressure); rabbits (platelets); details: for P-ED20 / platelet IC50: P-ED20 rats i.v., IC50 rabbit platelets in vitro; for selectivity of pharmacological activity (in words): compared with PGI2
Protocol: (2) From the results obtained in Examples 100 and 101, the ratio of the blood pressure lowering activity and the platelet aggregation inhibiting activity was calculated. The result is shown in Table 3 together with the ratio obtained with PGI2.

blood pressure [5] = test: action on blood pressure, intraduodenal administration to conscious rats; assay type: in vivo, rats (male SD); details: for mean blood pressure: N 4
Protocol: The prostocyclin derivatives of the invention were intraduodenally administered to conscious rats, and their action on the blood pressure was examined.
Male SD rats weighing about 200 g were used as experimental animals. These rats had been fasted for 16 hours before the start of the experiment. A catheter was inserted into the femoral artery of the rats under ether anesthesia, and then the rats were restrained within a Bollman cage. After more than 1 hour from awakening, each of the test compounds was intraduodenally administered.
The test compound was dissolved in a small amount of ethanol, and then diluted with 0.05M Tris buffer (pH 9) to adjust the final concentration of ethanol to not more than 5%. The mean blood pressure was measured by meaans of a pressure transducer through the catheter inserted into the femoral artery.

platelet aggregation [6] = test: extra vivo inhibitory activity of platelet aggregation after intraduodenal administration; assay type: in vivo, SD strain rats; details: for inhibition (%) (rate of platelet aggregation inhibition): 3 mg/kg i.d., blood drawn 30 min after administration, ADP, N 4
Protocol: extra vivo inhibitory activity of platelet aggregation:
The extra vivo platelet aggregation inhibitory activity of the prostacyclin derivatives of the invention were measured by using […]. The test compound of the invention in ethanol was diluted with 0.05M Tris buffer (pH 9.0) and as a control, only the 0.05M Tris buffer solution was used. These solutions were each intraduodenally administered in a dose of 1 ml/kg to SD strain rats weighing about 200 g which had been fasted for 16 hours. Thirty minutes after the administration, blood was drawn off from the aorta using trisodium citrate so that the ratio of the blood to 3.8% trisodium citrate was 9:1. The blood was centrifuged at a speed of 800 rpm for 10 minutes. The upper layer was separated as platelet-rich plasma (PRP). The lower layer was further centrifuged at a speed of 2800 rpm for 10 minutes. The upper layer was separated as platelet poor plasma (PPP). 250 microliters of the resulting PRP was taken into an aggregometer cuvette, and incubated at 37° C. for 2 minutes. Then, 25 microliters of a 1.25 μM ADP disodium solution adjusted by dissolving with 0.1M tris-HCl buffer (pH 8.0) was added. The aggregation curve was recorded for 3 minutes. The maximum degree of aggregation of platelets within this time period was read, and the rate of inhibition of platelet aggregation was calculated from the following equation.
Rate of platelet aggregation inhibition (%)=(1-(TD /TC)×100
TC : the transmittance of the control glroup (to which only the 0.05M Tris buffer solution was administered),
TD : the transmittance of the drug administered group.

[7] = tested on: platelet aggregation / blood pressure; details: cited from earlier work
[8] = tested on: 15-position dehydrogenase; details: cited from earlier work
[9] = cited from earlier work
[10] = 4 hr standing at 0° C. after dilution with phosphate buffer pH 7.4
[11] = 10 μg/kg/day i.p., day 5 to 11, 5 animals

## 5-Chloro-PGI2 [Compound 500]
Platelet aggregation [1]
  platelet aggregation inhibiting activity (in words): high platelet aggregation inhibiting activity
Blood pressure [2]
  blood pressure lowering activity (in words): low blood pressure lowering activity

## CCCCCC(O)C=CC1C(O)CC2OC(=C(Cl)CCCC(=O)O)CC21 (centres unmarked) [Compound 5Z-686, (5Z)-5-chloro-PGI2, sodium salt]
[3]
  half period: more than 1 month

## CCCCCC(O)C=CC1C(O)CC2OC(=CCCCC(=O)O)C(F)C21 (centres unmarked) [Compound 501, 7-Fluoro-PGI2]
Platelet aggregation [1]
  platelet aggregation inhibiting activity (in words): high platelet aggregation inhibiting activity
Blood pressure [2]
  blood pressure lowering activity (in words): low blood pressure lowering activity

## CCCCCC(O)C=CC1C(O)CC2OC(=C(Cl)CCCC(=O)OC)CC21 (centres unmarked) [Compound 636, (5E)-5-chloro-PGI2 methyl ester]
Platelet aggregation [1]; 0 hr
  IC50: 0.62 µg/mL (≈ 1.55 µM)
Platelet aggregation [1]; [10]
  IC50: 0.51 µg/mL (≈ 1.27 µM)

## CCCCCC(O)C=CC1C(O)CC2OC(=CCCCC(=O)OC)C(F)C21 (centres unmarked) [Compound 637, 7-fluoro-PGI2 methyl ester]
Platelet aggregation [1]; 0 hr
  IC50: 0.34 µg/mL (≈ 0.884 µM)
Platelet aggregation [1]; [10]
  IC50: 0.38 µg/mL (≈ 0.988 µM)

## CCCCCC(O)C=CC1C(O)CC2OC(=C(Cl)CCCC(=O)O)CC21 (centres unmarked) [Compound 686, (5E)-5-chloro-PGI2, sodium salt]
Heart rate
  ED10: > 10 µg/kg
Platelet aggregation [1]; 0 hr
  IC50: 0.14 µg/mL
Platelet aggregation [1]; [10]
  IC50: 0.12 µg/mL
Lewis lung carcinoma; [11]
  Number of nests which metastasized to the lungs (measured on the 20th day): 25.6 ± 12.0
  Weight of the primary next portion measured on the 12th day: 2.17 ± 0.86 g
Lewis lung carcinoma; Table 6
  metastasis of the primary nest to the lungs (in words): inhibited metastasis of the primary nest to the lungs
  primary nest (in words): reduced the primary nest
[4]
  P-ED20 / platelet IC50: 17.1
  selectivity of pharmacological activity (in words): higher selectivity of pharmacological activity than PGI2
[3]
  half-life: ~22 days
Blood pressure [2]
  ED20: 2.4 µg/kg

## CCCCCC(O)C=CC1C(O)CC2OC(=CCCCC(=O)O)C(F)C21 (centres unmarked) [Compound 688, sodium salt of 7-fluoro-PGI2]
Heart rate
  ED10: 1.9 µg/kg
Platelet aggregation [1]; 0 hr
  IC50: 0.05 µg/mL
Platelet aggregation [1]; [10]
  IC50: 0.05 µg/mL
Blood pressure [5]; 1 mg/kg i.d., 0 min
  mean blood pressure: 102 ± 4
Blood pressure [5]; 1 mg/kg i.d., 5 min
  mean blood pressure: 101 ± 4
Blood pressure [5]; 1 mg/kg i.d., 10 min
  mean blood pressure: 97 ± 3
Blood pressure [5]; 1 mg/kg i.d., 15 min
  mean blood pressure: 99 ± 4
Blood pressure [5]; 1 mg/kg i.d., 30 min
  mean blood pressure: 104 ± 3
Blood pressure [5]; 1 mg/kg i.d., 60 min
  mean blood pressure: 100 ± 4
Blood pressure [5]; 1 mg/kg i.d., 120 min
  mean blood pressure: 100 ± 2
Blood pressure [5]; 3 mg/kg i.d., 0 min
  mean blood pressure: 104 ± 2
Blood pressure [5]; 3 mg/kg i.d., 5 min
  mean blood pressure: 100 ± 3
Blood pressure [5]; 3 mg/kg i.d., 10 min
  mean blood pressure: 100 ± 3
Blood pressure [5]; 3 mg/kg i.d., 15 min
  mean blood pressure: 103 ± 2
Blood pressure [5]; 3 mg/kg i.d., 30 min
  mean blood pressure: 102 ± 3
Blood pressure [5]; 3 mg/kg i.d., 60 min
  mean blood pressure: 102 ± 2
Blood pressure [5]; 3 mg/kg i.d., 120 min
  mean blood pressure: 100 ± 2
[4]
  P-ED20 / platelet IC50: 14.0
  selectivity of pharmacological activity (in words): higher selectivity of pharmacological activity than PGI2
Platelet aggregation [6]
  inhibition (%) (rate of platelet aggregation inhibition): 87.5 ± 5.8%
Platelet aggregation [6]; Table 5, 3 mg/kg i.d., rats
  platelet aggregation inhibiting activity (in words): stronger platelet aggregating activity than the sodium salt of PGI2
Blood pressure [2]
  ED20: 0.7 µg/kg

## CCCCC[C@H](O)/C=C/[C@@H]1[C@H]2C/C(=C/CCCC(=O)O)O[C@H]2C[C@H]1O [PGI2, Prostaglandin I2, reference compound]
[7]
  doses required for platelet aggregation inhibiting action and antihypertensive action: almost equal to each other
Heart rate
  ED10: 0.04 µg/kg
[8]
  metabolism in vivo: rapidly metabolized by a 15-position dehydrogenase
Platelet aggregation [1]; 0 hr
  IC50: 0.0047 µg/mL (≈ 0.0133 µM)
Platelet aggregation [1]; [10]
  IC50: 0.56 µg/mL (≈ 1.59 µM)
[4]
  P-ED20 / platelet IC50: 4.3
[9]
  half period of its activity at physiological pH: only about several minutes
Blood pressure [2]
  ED20: 0.02 µg/kg

## CCCCCC(O)C=CC1C(O)CC2OC(=CCCCC(=O)O)CC21 (centres unmarked) [Sodium salt of PGI2, reference compound]
Blood pressure [5]; 3 mg/kg i.d., 0 min
  mean blood pressure: 109 ± 1
Blood pressure [5]; 3 mg/kg i.d., 5 min
  mean blood pressure: 84 ± 3
Blood pressure [5]; 3 mg/kg i.d., 10 min
  mean blood pressure: 101 ± 4
Blood pressure [5]; 3 mg/kg i.d., 15 min
  mean blood pressure: 110 ± 2
Blood pressure [5]; 3 mg/kg i.d., 30 min
  mean blood pressure: 109 ± 1
Blood pressure [5]; 3 mg/kg i.d., 60 min
  mean blood pressure: 107 ± 2
Blood pressure [5]; 3 mg/kg i.d., 120 min
  mean blood pressure: 103 ± 2
Blood pressure [5]; Table 4, i.d., conscious rats
  blood pressure lowering activity (in words): stronger blood pressure lowering activity than the compound No. 688 of the present invention (especially five minutes later)
Platelet aggregation [6]
  inhibition (%) (rate of platelet aggregation inhibition): 56.5 ± 11.3%
